Measured values published in patent US6407141B1 (priority 1995, dated 2002).

Columns and labels:
[1] = system: bone cancer (sarcoma) of the left hind leg; experiment: case study, Doberman pincher with bone cancer, oxalic acid enhanced dogfood; assay type: in vivo, dog
Source text: In accordance with another case study, a Doberman […] diagnosed with bone cancer (sarcoma) of the left hind leg. The dog had previously been put on medication for arthritis because it would not use or lower its left hind leg. […] A few days later, the dog began taking steps on the left hind leg with a slight limp.

[2] = case study, dog at a pound given oxalic acid dihydrate gel cap for seven days; assay type: in vivo; settings: one gram in a gel cap one hour prior to meal time for seven days
[3] = system: melanoma (mouth tumor); experiment: case study, Irish Setter with melanoma, oxalic acid diet and food additive; assay type: in vivo, canine; settings: eleven month period; diet, then oxalic acid dihydrate 1 gram down to 20 mg per day in food
[4] = system: infected torn toenail; experiment: soaking of poodle's infected paw in oxalic acid solution; assay type: in vivo, dog; settings: 150 mg in 300 ml of distilled water, after two soakings; antibiotic also given
Source text: On another occasion, the inventor's pet poodle had torn a toenail which became infected. The infection was in an advanced stage which was extremely sensitive and the poodle would not use the leg while walking. The poodle was examined by the veterinarian, received an injection of a antibiotic, and oral capsules were to be given.

[5] = FIG. 1; cited from earlier work
[6] = system: tarter or plaque, gums and mouth tissue; experiment: daily use of dental hygiene composition by the inventor; assay type: in vivo, human; settings: 150 mg diluted in 300 ml of distilled water
Source text: The inventor continued to search for other uses of the “miracle bullet” oxalic acid or oxalate compositions for treating the body and immune system. […] There was no more occasional bleeding of the gums during daily brushing, and the surface of the tongue appeared to be more smooth with an even coloring across the surface.

[7] = system: viral pneumonia; experiment: mouthwash procedure in viral pneumonia; assay type: in vivo, human; settings: 150 mg in 300 ml of distilled water, rinse and gargle three times daily, Friday to Sunday; antibiotics also given
Method: Also, their spouse was diagnosed with viral pneumonia by X-ray examination. They were given antibiotics to ward off infections because of a weakened immune system. […] They started the recommended procedure of approximately 2 teaspoons of wash, holding in mouth for 2 minutes then gargle, spit out wash, then rinsing mouth at least twice with warm tap water. The procedure was repeated first thing in the morning immediately after rising and before anything else was put in mouth. It was done mid-day with nothing in mouth one hour prior to wash. At night, the procedure was repeated as the last item before retiring.

[8] = system: leukemia with tumors in lymph nodes; experiment: case study, leukemia with tumors in lymph nodes; assay type: in vivo, human; settings: after 5-7 days; about 1 to 1 ½ g/day in dilute solution, almost no blockers
Source text: An adult was terminally ill with leukemia with tumors in their lymph nodes and they had stopped chemotherapy treatment. […] It was hard for them to swallow so they were on a liquid diet because of the swelling of the lymph nodes in and around their mouth and throat.

[9] = system: cold, flu virus, sore throat; experiment: mouth rinse and gargle case studies, cold, flu, sore throat; assay type: in vivo, human; settings: rinse two minutes and gargle three times a day for four days; two cases
Source text: On another occasion while visiting the veterinary clinic, the inventor noticed the receptionist had symptoms of a cold, and upon questioning the receptionist learned […] was treating a cold which was into the start of the second week. […] The inventor advised the receptionist that, each morning immediately upon rising, and prior to any other substance being put into the mouth, they should take approximately one teaspoon of the solution in their mouth, holding it for a minimum of two minutes, swishing the solution gently around the mouth, then discarding the solution and rinsing the mouth with warm water two or three times. The procedure began Friday night and the following Monday morning the cold was gone.
The dilute solution was the bench mark solution.
On still another occasion a pharmacist, consultant to the inventor, awoke at 2:30 a.m. with a very sore throat, unable to swallow without severe pain, remembered the inventor's description of their own experience, mixed two teaspoons of the bench mark mixture and two teaspoons of warm water, held the mixture in the mouth for two minutes and gargled well. After a 15-minute wait, repeated the procedure and then retired. Upon arising at 6:30 a.m., repeated the procedure one time before leaving for the pharmacy.

[10] = canine urine oxalate count; settings: about 1 gram per day intake; 25 Kilogram canine
[11] = system: gingivitis, tarter and plaque; experiment: daily brushing of dog's teeth with oxalic acid solution; assay type: in vivo; settings: 150 mg in 300 ml of distilled water, one week
Source text: At the completion of the exam, rather than treat the gingivitis with an injection of antibacterial medication followed by oral medication, it was agreed the inventor would commence daily brushing of the dog's teeth. […] The inventor began a daily brushing of the dog's teeth paying particular attention to the upper gums. The brushing was done first thing in the morning before the dog had anything to eat or drink. After the fourth day of brushing, the inventor/owner of the dog, noticed the redness of the gingivitis was disappearing and after one week returned the dog to the veterinarian for a follow-up exam. […] The veterinarian recommended cleaning one side of the dogs upper teeth and continuing with the daily brushing routine.

[12] = man; cited from earlier work
[13] = system: fever, burning and irritation when urinating, back pain; experiment: vitamin B6 pills for fever, urinary irritation, back pain attributed to oxalic acid; assay type: in vivo, human
Method: Then Turk's owner moved to Arkansas. His […], who is married and living nearby, worked at a local hospital. One day they began running a high fever in the range of 104° -106°, went home, and went straight to bed. The fever fell, and the next couple of days they returned to work only to have the fever return after a couple of hours. They went home and the cycle repeated. They mentioned this to a doctor in the emergency room and a series of tests were ordered looking for a virus, an infection, even a tubular conception. Turk's owner became involved, because after listening to long, sometimes whispered conversations between their spouse and stepdaughter, they asked what the trouble was. Their spouse explained what had happened and that the doctor was looking for some type of urinary tract or vaginal infection, but there were no positive cultures. […] Their stepdaughter was eating primarily salad bar meals loaded with oxalic acid.

[14] = system: low red blood cell count; experiment: vitamin B6 pills in woman with low red blood cell count; assay type: in vivo, human; settings: 50 mg pills, one a day first week then every other day; three weeks
Source text: After retirement, Turk's owner was planning to move and some friends stopped by to visit. One evening while having cocktails with the friends, they began talking about health and age, etc. […] Turk's owner's research had paid off. They gave their organic gardening magazine to the person and urged them to read the article by Judith Benn Hurley. They explained to them that the reason their red cell count was low was because of their diet. […] Their diet contained items high in oxalic acid, like spinach, their favorite salad.

[15] = after dose reduced to about 1 gram, then about 500 mg per day

In the case of `O=C(O)C(=O)O` [oxalic acid dihydrate], the pain and walking ([1]; after about 30 days on the oxalic acid diet) was “no pain during physical exam and was walking normally”, the “X-ray, area affected by the sarcoma” value [1, 15] was “decrease or reduction in the size of the area affected by the sarcoma” and the “X-ray, bone material” value [1, 15] was “increase in bone material in the area of the sarcoma”. For the same compound, the “use of left hind leg” value ([1]; within 4 days, about 2 grams added to dry dogfood) was “lowered its left hind leg and used it frequently”, the adverse effects [2] was “no adverse effects” and the mouth tumor size [3] was “reduced in size”.
In the case of `O=C(O)C(=O)O` [oxalic acid, ethanedioic acid], the “infection of the paw” value [4] is given as “improved dramatically”, the “stability of solutions to radiation” value [5] is given as “decomposed by radiation” and the “condition of gums and mouth tissue” value [6] is given as “remarkable improvement”. For the same compound, the “tarter or plaque in the mouth” value [6] was “removal of and prevention of any build up of tarter or plaque”, the “effects of the viral pneumonia” value [7] was “nearly complete relief” and the “tumors in lymph nodes” value [8] was “shrinkage of tumors in the lymph nodes”. The “soreness of throat and nose, flu virus” value [9] was “completely removes all soreness of throat and nose”, the “level of oxalate in the urine” value [10] was about 22000 ng/mL and the “gingivitis at follow-up exam” value [11] was “no more evidence of gingivitis”. The “tarter and plaque at follow-up exam” value [11] was “no tarter but moderate plaque remained”, the “death after ingestion, as early as” value [12] was 3 min and the “death after ingestion, as late as” value [12] was 14 days.
For `Cc1ncc(CO)c(CO)c1O.Cl` [vitamin B6, pyridoxine hydrochloride], the symptoms ([13]; after the third day) was “all symptoms were gone”, the “back pain without muscle or spine problems” value ([13]; other people) was “found relief” and the fever ([13]; two pills, one after twelve hours, then one a day, in two days) was “fever was gone”. The “outcome, surgery delayed by low red cell count” value [14] was “doctor had just scheduled their operation”.
